{"source": "patent US20250195551A1", "about": "(L4 BIO LLC, priority 2023, published 2025)", "tested_on": "pentylenetetrazol (PTZ)-induced ictal brain activity", "assay": "Modulation of pentylenetetrazol (PTZ)-induced seizures, BOLD fMRI in rats", "format": "in vivo", "settings": "3 mg/kg, positive control; anesthetized male Wistar rats", "experimental": "Functional MRI (fMRI) was performed using a high-field preclinical MRI system in anesthetized male Wistar rats in order to determine the modulation of pentylenetetrazol (PTZ)-induced ictal brain activity by chronic treatment with test compound (TC). Animals treated with vehicle and 3 mg/kg Alprazolam served as controls. A schematic of the study design can be seen in FIG. 6. […] Various physiological parameters were also measured throughout the experiment including body weight, CO2 levels, blood pH, and heart rate.", "note": "“Also recorded” adds a separate entry of the source.", "data": [{"smiles": "Cc1nnc2n1-c1ccc(Cl)cc1C(c1ccccc1)=NC2", "note": "[Alprazolam]", "values": [{"measurement": "PTZ-induced ictal brain activity (BOLD fMRI area under the curve) vs vehicle", "result": "effectively cancelled PTZ-induced brain activity; also recorded: Vehicle vs. Alprazolam in all"}]}]}
